For one test, the target named is T1, 5HT2c (Rattus norvegicus, UniProt P08909).
T1 sequence (P08909 33-460): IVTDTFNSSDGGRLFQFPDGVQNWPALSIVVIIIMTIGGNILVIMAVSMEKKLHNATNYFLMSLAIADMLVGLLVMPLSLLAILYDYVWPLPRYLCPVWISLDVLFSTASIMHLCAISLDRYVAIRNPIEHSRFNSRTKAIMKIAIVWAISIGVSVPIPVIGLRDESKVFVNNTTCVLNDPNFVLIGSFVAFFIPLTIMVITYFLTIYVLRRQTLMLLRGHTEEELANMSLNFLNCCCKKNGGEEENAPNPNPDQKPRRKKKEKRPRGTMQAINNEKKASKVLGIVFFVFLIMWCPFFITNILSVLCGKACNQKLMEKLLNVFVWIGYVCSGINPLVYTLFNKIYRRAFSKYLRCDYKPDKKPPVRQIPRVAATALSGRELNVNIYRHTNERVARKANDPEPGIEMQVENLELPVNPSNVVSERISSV
Put plainly: Ca2+ mobilization by FACS (Indo-1) in NIH3T3-POP cells expressing 5HT2c. The format is cell-based. Particulars: Mesulergine (10 μM) pretreated division arrested cells, 10 μM 5HT. The source says:
(§1) In order to measure and to analyze Ca^2+ mobilization, a commercially available cell sorter was used. Excitation was set at 360 nm, and emissions were set at both 400 (+/−15 nm) and 500 (+/−20)nm. The emissions were monitored simultaneously, and the emission ratio at 400 nm/500 nm was used to report the intracellular rise of Ca^2+ concentration. Untreated cells were used to set a baseline ratio.
(Calcium assays in cells follow changes in intracellular calcium, usually with a dye or a luminescent sensor.)

The test system of a further test is parental NIH3T3 cells. Put plainly: Ca2+ mobilization control in untransfected parental NIH3T3 cells. Particulars: parental NIH3T3 cells not transfected; data not shown. It is filed as cell-based.
From the text: as §1

For the molecule `CN1C[C@@H](NS(=O)(=O)N(C)C)C[C@@H]2c3cccc4c3c(cn4C)C[C@H]21` [Mesulergine], on 5HT2c, the “cells responding to serotonin in Ca++ mobilization” value is recorded as 0.1%.
Consider `NCCc1c[nH]c2ccc(O)cc12` [serotonin], for which the “fluorescence change when treated with serotonin” value in the test with parental NIH3T3 cells is recorded as “no fluorescence change”.

The values above are taken from patent US20120276545A1, “METHOD FOR USING DIVISION ARRESTED CELLS IN SCREENING ASSAYS” (LIFE TECHNOLOGIES CORPORATION, priority 2002, published 2012).
